{"source": "patent US20240365773A1", "about": "“USE OF APOPTOSIS INHIBITORS FOR COLD STORAGE OF BLOOD PLATELETS” (DRK-BLUTSPENDEDIENST BADEN-WUERTTEMBERG-HESSEN GGMBH, priority 2021, published 2024)", "type_in_all_cases": "cell-based, human", "key": {"[1]": {"tested_on": "PLTs of 4° C. stored APCs", "assay": "PLT viability of cold stored APCs treated with apoptosis inhibitors", "conditions": "for % PLT viability (day 10): 4° C. stored APC; for % viable cells: APCs stored at 4° C., G04 150 μM, forskolin 0.75 μM", "method": "(§1) APCs were collected from healthy volunteers according to the German guidelines for haemotherapy. Ten individuals donated two units of APCs collected with FENWAL AMICUS (Amicus, Fresenius Kabi, Bad Homburg, Germany) and stored in plasma or in PAS (SSP+, Macopharma, Langen, Germany) at 35% final plasma concentration at 4° C. and RT.\n(§2) Appropriate concentration for the inhibitors was determined prior to experiments, by titrating different concentrations. Directly after the collection, the APCs were stored for an hour without agitation. APCs were split further into different culture bags under aseptic conditions and stored in sterile, oxygen permeable bag (Fresenius Kabi A G, Bad Homburg, Germany). APCs were treated with 150 μM RhoA inhibitor G04, 0.75 μM […] (PKA) activator forskolin or 40 μM Caspase-9 inhibitor z-LEHD-fmk. […] APCs without any additions were used as a negative control. After 2 hours of treatment at RT, all the samples except the control at RT, were stored at 4° C. under constant gentle agitation. All samples were activated with thrombin receptor-activating peptide TRAP ([…], HART Biologicals) prior to measurements."}, "[2]": {"tested_on": "PLTs from APCs", "assay": "Determination of apoptosis (Annexin V-FITC staining)", "conditions": "for % Apoptosis (day 10): 4° C. stored APC; for % apoptotic cells: APCs stored at 4° C., forskolin 0.75 μM, z-LEHD-fmk 40 μM", "method": "as §1, §2\nPLTs from APCs were washed, resuspended with 1 mM CaCl2 and stained with Annexin V-FITC (Beckman Coulter) for 60 min at RT. Freshly isolated PLTs were incubated with 10 μM ionomycin (Abcam, Cambridge, UK) and used as positive control."}, "[3]": {"tested_on": "PLTs of 4° C. stored APCs", "assay": "Measurement of mitochondrial transmembrane potential", "conditions": "APCs stored at 4° C.", "method": "as §1, §2"}, "[4]": {"tested_on": "PLTs of 4° C. stored APCs", "assay": "Platelet aggregation (light transmission PLT aggregation assay)", "conditions": "for % PLT aggregation (day 7): 4° C. stored APC", "method": "as §1, §2\nPLT function was analyzed by FC and light transmission PLT aggregation assay (LTA) using a 4-channel-aggregometer (Labitec, Ahrensburg, Germany). Collagen (8 μg/ml), ristocetin ([…]) (both Molab, Langenfeld, Germany) or ADP (80 μM, Nycomed, Konstanz, Germany) were used as inductors."}, "[5]": {"tested_on": "cold-stored PLTs", "assay": "Platelet adhesion on fibrinogen coated coverslips", "conditions": "for Number of adherent cells (day 4) / Number of adherent cells (day 7): cold-stored PLTs, TRAP; for Number of adherent cells (day 4): day 4, fibrinogen coated coverslips; for Number of adherent cells (day 7): day 7, fibrinogen coated coverslips", "method": "Coverslips (Corning, New York, USA) were coated with […] of fibrinogen (Sigma Aldrich, Munich, Germany). After 4 and 7 days of storage PLTs (1×10^8 PLTs/mL) were seeded on coverslips and incubated for 1 hour at room temperature (RT) with TRAP (0.1 mM, Hart Biologicals, Hartlepool, UK). The adherent cells were fixed with 4% paraformaldehyde for 20 minutes (min) at RT. Images were captured from 5 different microscopic fields/coverslips (×100, Olympus IX73, Tokyo, Japan)."}, "[6]": {"tested_on": "cold-stored PLTs", "assay": "Thrombin generation (calibrated automated thrombogram)", "conditions": "each storage time point, vs buffer/untreated", "method": "Thrombin generation was quantified performing a fluorescence based-assay using a calibrated automated thrombogram system (CAT, Stago, Maastricht, Netherlands). The fluorescence signal was acquired for 60 min with a 390-nm […] excitation/460-nm emission filter set."}, "[7]": {"tested_on": "cold-stored PLTs", "assay": "Clot formation (thromboelastometer)", "conditions": "vs buffer/untreated", "method": "The clot formation was analysed using a 6-channel thromboelastometer device (Clot Pro, Enicor, Germany) and parameters were automatically calculated by dedicated software."}, "[8]": {"tested_on": "PLTs of 4° C. stored APCs", "assay": "Functional analysis of cold stored APCs (all functional parameters)", "conditions": "treated vs untreated", "method": "PLTs (10×10^6/mL) were incubated with TRAP6 (20 μM) for 30 min at 37° C., fixed with 4% PFA for 20 min at RT. The expression of CD62P (CLBThromb/6, Beckman Coulter) and CD63 (CLBGran/12, Beckman Coulter) was determined by FC. The conformational changes of glycoproteins (GPs) IIb/IIIa complex upon activation with TRAP were detected by PAC-1-antibody (BD Bioscience) using FC. PLT function was analyzed by FC and light transmission PLT aggregation assay (LTA) using a 4-channel-aggregometer (Labitec, Ahrensburg, Germany). Collagen (8 μg/ml), ristocetin ([…]) (both Molab, Langenfeld, Germany) or ADP (80 μM, Nycomed, Konstanz, Germany) were used as inductors."}}, "note": "Entries after “also recorded” stand apart in the source; their conditions may differ. Peptide text beside a SMILES is read from it. * marks the point of attachment. Cbz = O=C(OCc1ccccc1)*; CH2F = FC*"}
{"compound": "COC(=O)CC[C@H](NC(=O)[C@H](CC(C)C)NC(=O)OCc1ccccc1)C(=O)N[C@@H](Cc1cnc[nH]1)C(=O)N[C@@H](CC(=O)OC)C(=O)CF", "note": "[z-LEHD-fmk] (Cbz-LE(OMe)HD(OMe)-CH2F)", "values": [{"measurement": "% PLT viability (day 10)", "setting": "[1]; day 10", "result": 60.38, "unit": "%"}, {"measurement": "% viable cells", "setting": "[1]; day 10, z-LEHD-fmk 40 μM", "result": 60.38, "unit": "%"}, {"measurement": "PLT viability / survival (in words)", "setting": "[1]; cold stored APCs", "result": "partially restores PLT viability"}, {"measurement": "% Apoptosis (day 10)", "setting": "[2]; day 10", "result": 39, "unit": "%"}, {"measurement": "% apoptotic cells", "setting": "[2]; day 7", "result": 9.85, "unit": "%"}, {"measurement": "% apoptotic cells", "setting": "[2]; day 10, G04 150 μM", "result": 39.00, "unit": "%"}, {"measurement": "apoptosis (in words)", "setting": "[2]; cold stored APCs", "result": "decreases apoptosis"}, {"measurement": "mitochondrial transmembrane potential ΔΨm MFI", "setting": "[3]; day 10", "result": 6.26, "unit": "MFI"}, {"measurement": "% PLT aggregation (day 7)", "setting": "[4]", "result": "No significant effect"}, {"measurement": "PLT aggregation (in words)", "setting": "[4]; cold stored APCs, day 4", "result": "tendency of decreased PLT aggregation was observed at day 4 after the treatment, but it was not significant"}, {"measurement": "PLT adhesion, number of adherent cells (in words)", "setting": "[5]; cold-stored PLTs after 4 and 7 days of storage, vs buffer/untreated", "result": "no significant impact"}, {"measurement": "Number of adherent cells (day 4)", "setting": "[5]", "result": "No significant effect"}, {"measurement": "Number of adherent cells (day 7)", "setting": "[5]", "result": "No significant effect"}, {"measurement": "thrombin generation (AUC, area under the curve), in words", "setting": "[6]", "result": "no significant impact"}, {"measurement": "clot formation (MCF, maximum clot firmness), in words", "setting": "[7]", "result": "no significant impact"}, {"measurement": "PLT functions / functional parameters (overall, in words)", "setting": "[8]", "result": "no significant impact; also recorded: does not affect the diminished PLT function; also recorded: does not affect PLT functions"}]}
{"compound": "C=C[C@@]1(C)CC(=O)[C@]2(O)[C@@]3(C)[C@@H](O)CCC(C)(C)[C@@H]3[C@H](O)[C@H](OC(C)=O)[C@@]2(C)O1", "note": "[forskolin]", "values": [{"measurement": "% PLT viability (day 10)", "setting": "[1]; day 10", "result": 58.95, "unit": "%"}, {"measurement": "% viable cells", "setting": "[1]; day 7", "result": 87.1, "unit": "%"}, {"measurement": "% viable cells", "setting": "[1]; day 10, z-LEHD-fmk 40 μM", "result": 58.95, "unit": "%"}, {"measurement": "% Apoptosis (day 10)", "setting": "[2]; day 10", "result": 33, "unit": "%"}, {"measurement": "% apoptotic cells", "setting": "[2]; day 7", "result": 9.3, "unit": "%"}, {"measurement": "% apoptotic cells", "setting": "[2]; day 10, G04 150 μM", "result": 33, "unit": "%"}, {"measurement": "mitochondrial transmembrane potential ΔΨm MFI", "setting": "[3]; day 7", "result": 17.88, "unit": "MFI"}, {"measurement": "mitochondrial transmembrane potential ΔΨm MFI", "setting": "[3]; day 10", "result": 11.02, "unit": "MFI"}, {"measurement": "% PLT aggregation (day 7)", "setting": "[4]", "result": "No significant effect"}, {"measurement": "Number of adherent cells (day 4)", "setting": "[5]", "result": "No significant effect"}, {"measurement": "Number of adherent cells (day 7)", "setting": "[5]", "result": "No significant effect"}]}
